Experimental data reported in ChEMBL document CHEMBL1201862, “PubChem BioAssay data set” (2004).
Each block holds one compound with its values, some of them ahead of it. Active and inactive are the calls of the source. Unless noted, no cut-off for these calls is given here.

Tests used:
CAAX prenyl protease 2 [1] = molecular target: CAAX prenyl protease 2 (Homo sapiens, UniProt Q9Y256); experiment: inhibition of Ras-converting CAAX endoprotease – biochemical, plate reader, dry powder samples, dose response (AID 588848)
Sequence of CAAX prenyl protease 2 (Homo sapiens, UniProt Q9Y256) (Q9Y256 whole entry): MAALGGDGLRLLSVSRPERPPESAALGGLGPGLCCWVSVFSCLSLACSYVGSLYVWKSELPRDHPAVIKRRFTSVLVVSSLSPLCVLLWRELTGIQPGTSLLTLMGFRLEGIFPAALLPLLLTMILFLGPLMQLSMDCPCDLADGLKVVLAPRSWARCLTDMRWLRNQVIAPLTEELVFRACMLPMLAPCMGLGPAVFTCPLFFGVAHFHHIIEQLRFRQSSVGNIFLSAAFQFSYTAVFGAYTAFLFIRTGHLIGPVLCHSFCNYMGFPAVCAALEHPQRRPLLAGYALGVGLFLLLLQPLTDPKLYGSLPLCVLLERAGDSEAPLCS

CAAX prenyl protease 2 [2] = molecular target: T1, CAAX prenyl protease 2 (Saccharomyces cerevisiae S288c, UniProt Q03530); experiment: inhibition of Rce1p peptide cleavage – biochemical, plate reader, dry powder retest, dose response (AID 588851)
T1 sequence (Q03530 whole entry): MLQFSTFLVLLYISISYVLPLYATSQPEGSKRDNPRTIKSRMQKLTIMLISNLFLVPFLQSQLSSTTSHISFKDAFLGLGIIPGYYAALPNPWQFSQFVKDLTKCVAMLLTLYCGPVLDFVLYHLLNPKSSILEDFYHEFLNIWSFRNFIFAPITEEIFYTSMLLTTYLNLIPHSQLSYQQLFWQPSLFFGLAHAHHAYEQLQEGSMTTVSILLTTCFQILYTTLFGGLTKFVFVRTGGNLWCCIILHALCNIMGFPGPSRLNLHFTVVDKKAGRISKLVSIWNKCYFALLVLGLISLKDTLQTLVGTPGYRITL

Cysteine protease ATG4B = Cysteine protease ATG4B (Homo sapiens, UniProt Q9Y4P1); format: functional;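 note: Fluorescence-based dose-response confirmation assay measuring inhibition of ATG4B activity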
Sequence of Cysteine protease ATG4B (Q9Y4P1 whole entry): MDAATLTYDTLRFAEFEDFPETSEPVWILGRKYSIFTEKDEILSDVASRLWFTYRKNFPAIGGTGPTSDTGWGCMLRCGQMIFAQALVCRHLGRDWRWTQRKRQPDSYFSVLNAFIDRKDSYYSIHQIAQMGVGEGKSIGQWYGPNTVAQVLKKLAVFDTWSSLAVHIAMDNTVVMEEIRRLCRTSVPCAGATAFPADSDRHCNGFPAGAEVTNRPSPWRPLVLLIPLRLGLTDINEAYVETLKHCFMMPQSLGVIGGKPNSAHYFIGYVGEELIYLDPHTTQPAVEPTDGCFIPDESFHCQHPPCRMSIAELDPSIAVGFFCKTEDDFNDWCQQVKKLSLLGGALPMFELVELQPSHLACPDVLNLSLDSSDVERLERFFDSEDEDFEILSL

Phospholipase A2 = Phospholipase A2 (Homo sapiens, UniProt P04054); format: functional;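 note: confirmatory dose-response counterscreen on phospholipase A2, testing hits that came from an ultra-high-throughput screen for ATG4B inhibitors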
Sequence of Phospholipase A2 (P04054 whole entry): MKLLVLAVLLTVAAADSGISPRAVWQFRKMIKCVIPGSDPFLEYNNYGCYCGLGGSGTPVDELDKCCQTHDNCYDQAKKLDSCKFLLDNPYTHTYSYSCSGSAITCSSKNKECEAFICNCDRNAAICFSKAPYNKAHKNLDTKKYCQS

NIH3T3 = experiment: NIH-3T3 viability with fluconazole co-treatment – cell-based, Alamar Blue, dry powder, set 2, cytotoxicity control for antifungal resistance reversal project, dose response (AID 488911); format: functional; conditions: Mus musculus
Candida albicans = experiment: resistant Candida growth with fluconazole co-treatment – CaCi-8 strain, Alamar Blue, dry powder, set 2, dose response (AID 488909); format: functional, organism-based

- AC50 (CAAX prenyl protease 2 [1]): 49.5 µM (active)
- AC50 (CAAX prenyl protease 2 [2]): 33.6 µM (active)
Compound: CN(C)CCCN(C(=O)c1cc(-c2cccs2)nc2ccccc12)c1nc2ccc(F)cc2s1

- IC50 (Cysteine protease ATG4B): 11.8 µM (active)
- IC50 (Phospholipase A2): 7.22 µM (active)
Compound: O=C(c1ccc(OC2CCN(C/C=C/c3ccc(F)cc3)CC2)cc1)N1CCCC1

Compound: COc1ccnc(N2CCN(C(=O)c3ccc(Cl)cc3)CC2)c1
- AC50 (NIH3T3): 96.1 µM (active)
- AC50 (Candida albicans): 30.4 µM (active)
